# Reference: ChEMBL document CHEMBL3232941, “Docking and SAR studies of calystegines: binding orientation and influence on pharmacological chaperone effects for Gaucher's disease” (Bioorg Med Chem, 2014)
# Columns and labels:
# [1] = target: T1, Lysosomal acid glucosylceramidase (Homo sapiens, UniProt P04062); experiment: Inhibition of human lysosomal beta-glucocerebrosidase using 4-methylumbelliferyl-beta-D-glucopyranoside as substrate preincubated for 45 mins before substrate addition measured after 30 mins by fluorescence spectrophotometer analysis
# T1 sequence (P04062 whole entry): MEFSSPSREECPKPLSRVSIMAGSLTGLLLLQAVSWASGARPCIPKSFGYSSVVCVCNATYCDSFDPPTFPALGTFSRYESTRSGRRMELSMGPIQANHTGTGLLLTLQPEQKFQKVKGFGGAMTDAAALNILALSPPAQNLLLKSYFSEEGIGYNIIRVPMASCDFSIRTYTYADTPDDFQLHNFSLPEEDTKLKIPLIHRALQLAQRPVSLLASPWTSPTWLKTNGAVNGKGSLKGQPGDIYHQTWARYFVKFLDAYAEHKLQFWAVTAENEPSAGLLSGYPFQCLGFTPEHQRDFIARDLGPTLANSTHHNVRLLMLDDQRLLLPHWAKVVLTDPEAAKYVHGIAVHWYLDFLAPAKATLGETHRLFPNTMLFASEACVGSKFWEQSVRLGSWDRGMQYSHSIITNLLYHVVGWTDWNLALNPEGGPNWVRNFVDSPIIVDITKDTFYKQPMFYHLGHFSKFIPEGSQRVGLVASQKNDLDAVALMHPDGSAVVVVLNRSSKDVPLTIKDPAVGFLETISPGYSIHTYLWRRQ
# [2] = target: T1, Lysosomal acid glucosylceramidase; experiment: Competitive inhibition of human lysosomal beta-glucocerebrosidase using 4-methylumbelliferyl-beta-D-glucopyranoside as substrate preincubated for 45 mins before substrate addition measured after 30 mins by double-reciprocal plot analysis
# [3] = target: T2, Lysosomal acid glucosylceramidase (Homo sapiens) (UniProt P04062); experiment: Inhibition of human lysosomal beta-glucocerebrosidase using 4-methylumbelliferyl-beta-D-glucopyranoside as substrate at 1000 uM preincubated for 45 mins before substrate addition measured after 30 mins by fluorescence spectrophotometer analysis
# T2 sequence (whole entry): T1 sequence (P04062 whole entry)
Compound,IC50 [1] [µM],Ki [2] [µM],inhibition [3] [%]
O[C@@H]1[C@@H](O)[C@H](O)[C@]2(O)CC[C@H]1N2 [CALYSTEGINE B2],5.1,3.8,–
O[C@@H]1[C@@H](O)[C@H]2CC[C@](O)(N2)[C@@H]1O,616,199,–
O[C@@H]1[C@H](O)[C@H]2CC[C@](O)(N2)[C@H]1O,175,98,–
O[C@@H]1[C@@H](O)C[C@]2(O)CC[C@H]1N2,–,–,< 50
O[C@@H]1C[C@H]2CC[C@](O)(N2)[C@H]1O,16,6.3,–
